Measured values taken from patent publication EP4778924A1 (Huons Co., Ltd., priority 2023, dated 2025).
Structures can show the parent of a compound that is named as a salt.

target: T1, Proton Pump (H^+,K^+-ATPase) (Sus scrofa, UniProt P19156); assay: Inhibitory activity on proton pump (H+,K+-ATPase) activity, porcine gastric vesicles, malachite green readout; type: biochemical; settings: porcine gastric vesicles, pH 6.5, 8 mM KCl, 0.2 mM ATP
T1 construct: gastric vesicles were isolated from porcine stomachs; from tissue; host or cells: porcine stomach (gastric vesicles)
Protocol: Specifically, gastric vesicles were isolated from porcine stomachs, and the protein content of the vesicles was quantified using a BSA kit (Bio-Rad, 5000205). All reactions were performed in 96-well plates with a reaction volume of […] containing 100 ng of vesicles. 10 mM valinomycin and the test compound were added to reaction buffer (50 mM Tris-HEPES, 5 mM MgCl2, 8 mM KCl, pH 6.5) containing porcine gastric vesicles at various concentrations, and the mixture was incubated at 37°C for 30 minutes. DMSO or test compounds at different concentrations were added after diluting them to a final DMSO concentration of 0.1%. 0.2 mM adenosine triphosphate (ATP) was then added to the reaction buffer and incubated at 37°C for 20 minutes. The reaction was stopped with 0.2% Tween 20, followed by the addition of malachite green (Sigma Aldrich, MAK307) and incubation at room temperature for 30 minutes. The optical density (OD) value was measured at 620 nm using a microplate reader (Spectramax M5e, Molecular devices). The percent (%) inhibition was derived from the OD values of the control group and various concentrations of the test compounds. The IC50 of the test compounds was analyzed using nonlinear regression using the GraphPad Prism8 program using the % inhibition value at each concentration.

T1 sequence (P19156 2-1034 limits assumed): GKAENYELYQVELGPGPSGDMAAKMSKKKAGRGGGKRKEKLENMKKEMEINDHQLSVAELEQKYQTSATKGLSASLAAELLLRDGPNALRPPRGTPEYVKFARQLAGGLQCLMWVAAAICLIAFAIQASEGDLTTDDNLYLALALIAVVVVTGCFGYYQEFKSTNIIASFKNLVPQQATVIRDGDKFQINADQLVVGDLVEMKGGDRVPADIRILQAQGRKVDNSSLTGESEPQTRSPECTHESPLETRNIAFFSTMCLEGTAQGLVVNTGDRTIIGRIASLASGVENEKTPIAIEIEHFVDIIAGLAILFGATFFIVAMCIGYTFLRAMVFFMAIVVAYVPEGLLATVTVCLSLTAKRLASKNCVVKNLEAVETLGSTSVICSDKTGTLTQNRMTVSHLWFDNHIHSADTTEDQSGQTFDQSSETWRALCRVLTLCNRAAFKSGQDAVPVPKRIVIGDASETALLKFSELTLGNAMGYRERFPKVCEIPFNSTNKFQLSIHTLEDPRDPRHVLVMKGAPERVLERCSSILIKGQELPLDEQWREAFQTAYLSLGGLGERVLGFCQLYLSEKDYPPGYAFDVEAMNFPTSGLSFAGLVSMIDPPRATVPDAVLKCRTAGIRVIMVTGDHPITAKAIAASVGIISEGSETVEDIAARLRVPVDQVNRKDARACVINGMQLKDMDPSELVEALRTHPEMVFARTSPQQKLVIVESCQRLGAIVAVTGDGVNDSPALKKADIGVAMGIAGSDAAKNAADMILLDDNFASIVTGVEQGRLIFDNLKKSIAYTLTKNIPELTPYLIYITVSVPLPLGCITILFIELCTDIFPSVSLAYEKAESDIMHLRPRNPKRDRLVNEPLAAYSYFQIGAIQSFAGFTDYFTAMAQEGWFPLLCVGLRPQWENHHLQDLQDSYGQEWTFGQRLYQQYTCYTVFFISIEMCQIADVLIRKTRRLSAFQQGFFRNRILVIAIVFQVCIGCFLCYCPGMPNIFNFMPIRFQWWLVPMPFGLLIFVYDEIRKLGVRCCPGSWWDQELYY
T1 sequence (P18434 whole entry partner): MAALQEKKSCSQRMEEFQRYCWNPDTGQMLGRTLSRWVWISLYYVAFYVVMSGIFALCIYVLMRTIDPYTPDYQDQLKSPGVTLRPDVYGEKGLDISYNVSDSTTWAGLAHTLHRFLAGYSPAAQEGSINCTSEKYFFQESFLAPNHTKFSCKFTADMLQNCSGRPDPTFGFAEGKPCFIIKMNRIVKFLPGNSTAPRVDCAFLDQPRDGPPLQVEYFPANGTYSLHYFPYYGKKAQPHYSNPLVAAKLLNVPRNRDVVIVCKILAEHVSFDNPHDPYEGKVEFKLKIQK

Compound | IC50 [nM]
Cc1cccc(C)c1CNc1cc(NC(=O)[C@H]2CCN(C(=O)CO)C2)cn2c(C)c(C)nc12 [Example 110, (S)-N-(8-((2,6-dimethylbenzyl)amino)-2,3-dimethylimidazo[1,2-a]pyridin-6-yl)-1-(2-hydroxyacetyl)pyrrolidine-3-carboxamide citrate] | 100 to 500
Cc1cccc(C)c1CNc1cc(NC(=O)NCC(=O)N(C)C)cn2c(C)c(C)nc12 [Example 48, 2-(3-(8-((2,6-dimethylbenzyl)amino)-2,3-dimethylimidazo[1,2-a]pyridin-6-yl)ureido)-N,N-dimethylacetamide hydrochloride] | 50 to 100
CCNC(=O)Nc1cc(NCc2c(C)cccc2C)c2nc(C)c(C)n2c1 [Example 22, 1-(8-((2,6-dimethylbenzyl)amino)-2,3-dimethylimidazo[1,2-a]pyridin-6-yl)-3-ethylurea] | 50 to 100
Cc1cc(F)cc(C)c1CNc1cc(NC(=O)NC2CC2)cn2c(C)c(C)nc12 [Example 50, 1-cyclopropyl-3-(8-((4-fluoro-2,6-dimethylbenzyl)amino)-2,3-dimethylimidazo[1,2-a]pyridin-6-yl)urea hydrochloride] | < 50
Cc1cccc(C)c1CNc1cc(NC(=O)[C@H]2CNCCN2)cn2c(C)c(C)nc12 [Example 85, (R)-N-(8-((2,6-dimethylbenzyl)amino)-2,3-dimethylimidazo[1,2-a]pyridin-6-yl)piperazine-2-carboxamide hydrochloride] | 100 to 500
Cc1cccc(C)c1CNc1cc(Br)cn2c(C)c(C)nc12 [Comparative Example 1, reference compound] | 100 to 500
Cc1cc(F)cc(C)c1CNc1cc(NC(=O)[C@H](C)N)cn2c(C)c(C)nc12 [Example 63, (S)-2-amino-N-(8-((4-fluoro-2,6-dimethylbenzyl)amino)-2,3-dimethylimidazo[1,2-a]pyridin-6-yl)propanamide hydrochloride] | 50 to 100
Cc1cccc(C)c1CNc1cc(N2CCC2=O)cn2c(C)c(C)nc12 [Example 28, 1-(8-((2,6-dimethylbenzyl)amino)-2,3-dimethylimidazo[1,2-a]pyridin-6-yl)azetidin-2-one] | > 500
Cc1cccc(C)c1CNc1cc(NC(=O)CNC(=O)C2CC(F)C2)cn2c(C)c(C)nc12 (stereo not drawn) [Example 59, N-(2-((8-((2,6-dimethylbenzyl)amino)-2,3-dimethylimidazo[1,2-a]pyridin-6-yl)amino)-2-oxoethyl)-3-fluorocyclobutane-1-carboxamide] | 100 to 500
Cc1cccc(C)c1CNc1cc(NC(=O)NC(C)C)cn2c(C)c(C)nc12 [Example 31, 1-(8-((2,6-dimethylbenzyl)amino)-2,3-dimethylimidazo[1,2-a]pyridin-6-yl)-3-isopropylurea hydrochloride] | 100 to 500
Cc1cccc(C)c1CNc1cc(NC(=O)NC2CCC2)cn2c(C)c(C)nc12 [Example 23, 1-cyclobutyl-3-(8-((2,6-dimethylbenzyl)amino)-2,3-dimethylimidazo[1,2-a]pyridin-6-yl)urea hydrochloride] | 50 to 100
Cc1cccc(C)c1CNc1cc(NC(=O)CNC(=O)C(C)(F)F)cn2c(C)c(C)nc12 [Example 57, N-(2-((8-((2,6-dimethylbenzyl)amino)-2,3-dimethylimidazo[1,2-a]pyridin-6-yl)amino)-2-oxoethyl)-2,2-difluoropropanamide] | 100 to 500
Cc1cccc(C)c1CNc1cc(NC(=O)CCOCCC(=O)O)cn2c(C)c(C)nc12 [Example 39] | > 500
Cc1cccc(C)c1CNc1cc(NC(=O)N2Cc3ccccc3C2)cn2c(C)c(C)nc12 [Example 67, N-(8-((2,6-dimethylbenzyl)amino)-2,3-dimethylimidazo[1,2-a]pyridin-6-yl)isoindoline-2-carboxamide] | 50 to 100
Cc1cccc(C)c1CNc1cc(NC(=O)N2CCC(c3ccccc3)C2)cn2c(C)c(C)nc12 (stereo not drawn) [Example 84, N-(8-((2,6-dimethylbenzyl)amino)-2,3-dimethylimidazo[1,2-a]pyridin-6-yl)-3-phenylpyrrolidine-1-carboxamide] | 100 to 500
Cc1cccc(C)c1CNc1cc(NC(=O)C(C)C)cn2c(C)c(C)nc12 [Example 7, N-(8-((2,6-dimethylbenzyl)amino)-2,3-dimethylimidazo[1,2-a]pyridin-6-yl)isobutyramide] | 100 to 500
CC(=O)OCC(=O)Nc1cc(NCc2c(C)cccc2C)c2nc(C)c(C)n2c1 [Example 25, 2-((8-((2,6-dimethylbenzyl)amino)-2,3-dimethylimidazo[1,2-a]pyridin-6-yl)amino)-2-oxoethyl acetate] | 100 to 500

Compound | IC50 [nM]
Cc1cccc(C)c1CNc1cc(NC(=O)NCCC(=O)O)cn2c(C)c(C)nc12 [Example 71, 3-(3-(8-((2,6-dimethylbenzyl)amino)-2,3-dimethylimidazo[1,2-a]pyridin-6-yl)ureido)propionic acid citrate] | 100 to 500
Cc1cccc(C)c1CNc1cc(N2C(=O)NCCNC2=O)cn2c(C)c(C)nc12 [Example 72, 3-(8-((2,6-dimethylbenzyl)amino)-2,3-dimethylimidazo[1,2-a]pyridin-6-yl)-1,3,5-triazepane-2,4-dione] | 100 to 500
Cc1cccc(C)c1CNc1cc(NC(=O)CNC(=O)C(C)(C)C)cn2c(C)c(C)nc12 [Example 55, N-(2-((8-((2,6-dimethylbenzyl)amino)-2,3-dimethylimidazo[1,2-a]pyridin-6-yl)amino)-2-oxoethyl)pivalamide] | > 500
Cc1nc2c(O[C@H]3CCOc4cc(F)cc(F)c43)cc(C(=O)N(C)C)cc2[nH]1 [Tegoprazan, reference compound] | > 500
Cc1cccc(C)c1CNc1cc(NC(=O)N2CCNCC2)cn2c(C)c(C)nc12 [Example 103, N-(8-((2,6-dimethylbenzyl)amino)-2,3-dimethylimidazo[1,2-a]pyridin-6-yl)piperazine-1-carboxamide hydrochloride] | 100 to 500
Cc1cccc(C)c1CNc1cc(NC(=O)[C@@H]2CN2)cn2c(C)c(C)nc12 [Example 109, (S)-N-(8-((2,6-dimethylbenzyl)amino)-2,3-dimethylimidazo[1,2-a]pyridin-6-yl)aziridine-2-carboxamide hydrochloride] | 100 to 500
Cc1cccc(C)c1CNc1cc(NC(=O)N2CCOCC2)cn2c(C)c(C)nc12 [Example 61, N-(8-((2,6-dimethylbenzyl)amino)-2,3-dimethylimidazo[1,2-a]pyridin-6-yl)morpholine-4-carboxamide citrate] | 50 to 100
CC(=O)NCCNC(=O)Nc1cc(NCc2c(C)cccc2C)c2nc(C)c(C)n2c1 [Example 73, N-(2-(3-(8-((2,6-dimethylbenzyl)amino)-2,3-dimethylimidazo[1,2-a]pyridin-6-yl)ureido)ethyl)acetamide] | 100 to 500
Cc1cccc(C)c1CNc1cc(NC(=O)[C@@H](C)O)cn2c(C)c(C)nc12 [Example 97, (R)-N-(8-((2,6-dimethylbenzyl)amino)-2,3-dimethylimidazo[1,2-a]pyridin-6-yl)-2-hydroxypropanamide citrate] | 50 to 100
COC(=O)c1cc(NCc2c(C)cccc2C)c2nc(C)c(C)n2c1 [Comparative Example 2, reference compound] | > 500
Cc1cccc(C)c1CNc1cc(NC(=O)CNC(=O)C(F)F)cn2c(C)c(C)nc12 [Example 56, N-(2-((8-((2,6-dimethylbenzyl)amino)-2,3-dimethylimidazo[1,2-a]pyridin-6-yl)amino)-2-oxoethyl)-2,2-difluoroacetamide] | > 500
Cc1cccc(C)c1CNc1cc(NC(=O)NC23CC(C2)C3)cn2c(C)c(C)nc12 [Example 29, 1-(bicyclo[1.1.1]pentan-1-yl)-3-(8-((2,6-dimethylbenzyl)amino)-2,3-dimethylimidazo[1,2-a]pyridin-6-yl)urea hydrochloride] | > 500
Cc1cccc(C)c1CNc1cc(NC(=O)C2CCCCC2)cn2c(C)c(C)nc12 [Example 3, N-(8-((2,6-dimethylbenzyl)amino)-2,3-dimethylimidazo[1,2-a]pyridin-6-yl)cyclohexanecarboxamide] | > 500
Cc1cccc(C)c1CNc1cc(NC(=O)C23CC(C2)C3)cn2c(C)c(C)nc12 [Example 12, N-(8-((2,6-dimethylbenzyl)amino)-2,3-dimethylimidazo[1,2-a]pyridin-6-yl)bicyclo[1.1.1]pentane-1-carboxamide] | 100 to 500
Cc1cccc(C)c1CNc1cc(NC(=O)[C@@]2(C)CCN2)cn2c(C)c(C)nc12 [Example 75, (R)-N-(8-((2,6-dimethylbenzyl)amino)-2,3-dimethylimidazo[1,2-a]pyridin-6-yl)-2-methylazetidine-2-carboxamide hydrochloride] | 100 to 500
Cc1cccc(C)c1CNc1cc(NC(=O)C[C@H]2CCCN2)cn2c(C)c(C)nc12 [Example 91, (R)-N-(8-((2,6-dimethylbenzyl)amino)-2,3-dimethylimidazo[1,2-a]pyridin-6-yl)-2-(pyrrolidin-2-yl)acetamide hydrochloride] | 50 to 100
Cc1cccc(C)c1CNc1cc(NC(=O)NCC(=O)O)cn2c(C)c(C)nc12 [Example 70, ((8-((2,6-dimethylbenzyl)amino)-2,3-dimethylimidazo[1,2-a]pyridin-6-yl)carbamoyl)glycine hydrochloride] | 100 to 500

same assay, conditions: result in words

Compound | inhibitory activity against proton pump activity
Cc1cccc(C)c1CNc1cc(Br)cn2c(C)c(C)nc12 [Comparative Example 1, reference compound] | weak inhibitory activity
COC(=O)c1cc(NCc2c(C)cccc2C)c2nc(C)c(C)n2c1 [Comparative Example 2, reference compound] | weak inhibitory activity
